Converted amounts (≈) assume the structure as drawn.
What was measured:
Enterococcus faecalis = test system: Enterococcus faecalis; parameters: method as in PMID 37687129, PMID 7622440; details: cited from earlier work
Bacillus subtilis = test system: Bacillus subtilis; parameters: method as in PMID 37687129, PMID 7622440; details: cited from earlier work
[1] = test system: C. albicans ATCC10231 biofilm formation; assay: Anti-biofilm activity assessment (crystal violet); type: cell-based, Candida albicans; details: for inhibition of biofilm formation (in words): data not shown
Procedure: Anti-biofilm activity assessment: The effect of compounds on biofilms formation was determined on C. albicans ATCC 10231 strain. Anti -biofilm assays were conducted using a previously reported methodology with small modifica tions.9 The assay was carried out in 96 - well round-bottom polystyrene microtiter plates. Cells wer e harvested from overnight grown cultures, washed twice with sterile phosphate -buffered saline (PBS; Sigma -Aldrich, Munich, Germany), and resuspended in RPMI 1640 medium (Sigma -Aldrich) containing 2% glucose (w/v) at a concentration of 1 × 10^5 CFU/mL. C. albicans suspension was incubated with 0.5 MIC, 1 MIC, and 2 MIC compounds concentration in 200.0 μL final volume per well for 48 h at 37 °C to allow biofilm formation. Biofilm growth was analyzed by crystal violet (CV) staining of adherent cells and the a bsorbance at 590.0 nm was read on a Tecan Infinite 200 Pro multiplate reader (Tecan Group Ltd., Männedorf, Switzerland). […]

[2] = test system: human lung fibroblast cell line (MRC-5); assay: Cytotoxicity evaluation by MTT assay; type: cell-based
Description: (§1) 3. Bioactivity and Toxicity Assays
(§2) Antimicrobial assay: According to the standard broth micro-dilution assays, following the Standards of European Committee on Antimicrobial Susceptibility Testing (v 7.3.1: Method for the determination of broth dilution minimum inhibitory concentrations of antifungal agents for yeasts) for Candida spp., and according to the standard broth micro-dilution assays, recommended by the National Committee for Clinical Laboratory Standards (M07-A8) for bacteria MIC values of compounds were determinate. Compounds were dissolved in DMSO at a concentration of 50 mg/mL, and the highest tested concentration was 250 µg/mL. The inoculums were 1x10^5 colony forming units (CFU/mL), for Candida species, and bacteria species, 5x10^5 colony forming units (CFU/mL). The MIC value was recorded as the lowest concentration that inhibited the growth after 24 h at 37 °C. Additionally, 5 µL from each well of 96 well plates was transferred to Luria Agar (LA) plates for bacteria and Sabouraud agar (SAB) plates for Candida spp. and incubated for an additional 24 h at 37 °C, to determine MBC (Minimum bactericidal/fungicidal concentration) values. In Table 1. Are labeled compounds showing a difference in MBC and previously determined MIC values.
Cytotoxicity evaluation: Antiproliferative activity was tested by MTT assay (3-(4,5-dimethylthiazol-2-yl)-2,5-diphenyltetrazoliumbromide) on a human lung fibroblast cell line (MRC-5; ATCC collection). Pre-grown (24 h) cell monolayers (1x10^4 cells per well) in RPMI 1640 medium supplemented with 100 μg/mL streptomycin, 100 U/mL penicillin, and 10% (v/v) FBS (all from Sigma, Munich, Germany) containing the tested compounds at concentrations ranging from 5 to 20 μg/mL were incubated in a humidified atmosphere of 95% air and 5% CO2 at 37 °C for 48 h. The cell viability (extent of MTT reduction) was measured spectrophotometrically at 540 nm using the Epoch 2000 multiplate reader, and the cell survival was expressed as a percentage of the control (untreated cells). Cytotoxicity was expressed as the concentration of the compound inhibiting cell growth by 50% (IC 50). […]

[3] = test system: ergosterol in C. albicans; assay: Ergosterol biosynthesis assay; type: cell-based, Candida albicans; details: 0.5 MIC; Candida cells; UV profile
Procedure: Ergosterol biosynthesis assay: Ergosterol levels were measured according to the published procedure with some minor modifications. 10 Briefly, a sing le C. albicans colony from an overnight Sabouraud dextrose agar plate was used to inoculate 50 ml of Sabouraud dextrose broth containing 0.5 MIC concentrated compounds. Incubation was performed for 18 h at 37 °C on the rotary shaker at 180 rpm. Cells were harvested by centrifugation at 3000 rpm for 5 min and washed once with sterile distilled water. The net wet weight of the cell pellet was determined. Three milliliters of 25% alcoholic potassium hydroxide solution (25 g of KOH and 35 ml of sterile distill ed water, brought to 100 ml with 100% ethanol), was added to each pellet and vortex mixed for 1 min and incubated in an 85 °C water bath for 1 h. Tubes were cooled to room temperature and extraction of sterols was done with the addition of a mixture of 1 ml of sterile distilled water and 3 ml of n-heptane followed by vigorous vortex mixing for 3 min. The heptane layer was used for spectrophotometrically measuring ergosterol concentrations by scanning absorbance between 240 nm and 300 nm using Ultrospec 3300pro 573 (Amer sham Biosciences, Amersham, UK).

[4] = test system: C. albicans ATCC 10231 hyphae formation; assay: Filamentation test on Candida (solid spider medium); type: cell-based, Candida albicans; details: for relative activity in inhibition of filament formation (in words): compared with 36 and 41, sub-inhibitory concentrations
Procedure: Filamentation test on Candida: Using solid composition, the effect of sorrentano ne […]
albicans cells from an overnight culture grown in Sabouraud dextrose broth medium at 37 °C with or without compounds were centrifuged for 10 minutes at maximum speed, and the pellet was washed several times with sterile PBS (phosphate -buffered saline). After it, the pellet was resuspended in 200 µL PBS, and 2 µL of cell suspension was poured over solid composition and incubated at 37 °C for 120 h. Morphological changes of C. albicans ATCC

C. albicans ATCC10231 = assay: Antimicrobial broth micro-dilution assay (MIC); type: cell-based; details: Candida albicans; C. albicans ATCC10231; 24 h at 37 °C; highest tested concentration 250 µg/mL; read-out: Minimum inhibitory concentration (MIC)
Description: as §1
as §2, with “MIC values. […]” for “MIC values.”

B. subtilis ATCC6633 = assay: Antimicrobial broth micro-dilution assay (MIC); type: cell-based; details: Bacillus subtilis; B. subtilis ATCC6633; 24 h at 37 °C; highest tested concentration 250 µg/mL; read-out: Minimum inhibitory concentration (MIC)
Description: as §1
as §2, with “MIC values. […]” for “MIC values.”

P. aeruginosa ATCC27853 = assay: Antimicrobial broth micro-dilution assay (MIC); type: cell-based; details: Pseudomonas aeruginosa; P. aeruginosa ATCC27853; 24 h at 37 °C; highest tested concentration 250 µg/mL; read-out: Minimum inhibitory concentration (MIC)
Description: as §1
as §2, with “MIC values. […]” for “MIC values.”

S. aureus ATCC25923 = assay: Antimicrobial broth micro-dilution assay (MIC); type: cell-based; details: Staphylococcus aureus; S. aureus ATCC25923; 24 h at 37 °C; highest tested concentration 250 µg/mL; read-out: Minimum inhibitory concentration (MIC)
Description: as §1
as §2, with “MIC values. […]” for “MIC values.”

S. aureus MRSA = assay: Antimicrobial broth micro-dilution assay (MIC); type: cell-based; details: Staphylococcus aureus; S. aureus MRSA; 24 h at 37 °C; highest tested concentration 250 µg/mL; read-out: Minimum inhibitory concentration (MIC)
Description: as §1
as §2, with “MIC values. […]” for “MIC values.”

E. coli NCTC9001 = assay: Antimicrobial broth micro-dilution assay (MIC); type: cell-based; details: Escherichia coli; E. coli NCTC9001; 24 h at 37 °C; highest tested concentration 250 µg/mL; read-out: Minimum inhibitory concentration (MIC)
Description: as §1
as §2, with “MIC values. […]” for “MIC values.”

[5] = test system: various Streptococcus and Staphylococcus species; parameters: method as in PMID 37687129, PMID 7622440; details: cited from earlier work
[6] = test system: two S. aureus strains and B. subtilis ATCC6633; assay: Antimicrobial assay, Gram-positive bacteria; type: cell-based; details: from MIC values
Description: as §1
as §2, with “MIC values. […]” for “MIC values.”

Compound	IC50 (Enterococcus faecalis) [µg/mL]	IC50 (Bacillus subtilis) [µg/mL]	inhibition of biofilm formation (in words) [1]	inhibition of biofilm formation ([1]; sub-inhibitory concentration (0.5 times MIC), 48 h)	in vitro toxicity ranking (in words) ([2]; MRC-5 cells)	selectivity index (SI) ([2]; cytotoxicity versus antibiotic activity, calculation not described)	reduction of total amount of ergosterol (in words) [3]	filamentation (in words) ([4]; 0.5 times MIC, 120 h, C. albicans ATCC10231)	relative activity in inhibition of filament formation (in words) [4]	MIC (C. albicans ATCC10231) [µg/mL]	MIC (B. subtilis ATCC6633) [µg/mL]	MIC (P. aeruginosa ATCC27853) [µg/mL]	MIC (S. aureus ATCC25923) [µg/mL]	MIC (S. aureus MRSA) [µg/mL]	MIC (E. coli NCTC9001) [µg/mL]	IC50 [5] [µg/mL]	improvement of antibacterial activity compared to sorrentanone (7) [6]
C/C=C/C=C/C(=O)C1=C(C)C(=O)C(O)=C(C)C1=O [compound 7, sorrentanone]	128 (≈ 520 µM)	32.0 (≈ 130 µM)	displayed inhibition of biofilm formation	60–77%	highest toxicity	1.12	most potent in reducing the total amount of ergosterol	already show filamentation after 120 h	less active	125 (≈ 508 µM)	62.5 (≈ 254 µM)	> 250	62.5 (≈ 254 µM)	31.2 (≈ 127 µM)	> 250	16.0 to 64.0	–
C=CCCCOC(=O)C1=C(C)C(=O)C(O)=C(C)C1=O [compound 39]	–	–	displayed inhibition of biofilm formation	–	–	–	most potent in reducing the total amount of ergosterol	–	less active	62.5 (≈ 236 µM)	15.6 (≈ 59 µM)	> 250	62.5 (≈ 236 µM)	62.5 (≈ 236 µM)	> 250	–	two- to four-fold improved activity

From paper PMC12227560, “Total synthesis of a sorrentanone ester library and evaluation of its antimicrobial potential” (Scientific Reports, 2025)
